Results as given in US11760755B2, “Hepatitis B antiviral agents” (priority 2019, dated 2023).
Where two headings read alike, the source gives them in different places.

Key:
HBV = assay: HepAD38 antiviral assay: reduction of viral product accumulation (virion DNA by qPCR, HBsAg/HBeAg by ELISA); type: cell-based, hepatitis B virus
Protocol: Methods: HepAD38 cells are maintained as previously reported (Ladner et al, Antimicrob. Agents Chemother. 1997, […], 1715). Briefly, cells are passaged upon attaining confluency in DMEM/F12 media in the presence of 10% FBS, Penn/Strep, 250 μg/mL G418, and 1 μg/ml tetracycline. Novel compounds are screened by first washing cells three times with PBS to remove tetracycline, and plating in 96 well plates at 35,000 cells/well. Compounds dissolved in DMSO are then diluted 1:200 into wells containing cells. Five days after compound addition, material is harvested for analysis. For an extended 8 day analysis, cells are plated and treated as described above, but media and compound are refreshed on d2 and d5 post initial treatment.
On harvest day, virion DNA is obtained by lysing with Sidestep Lysis and Stabilization Buffer and then quantified via quantitative real time PCR. Commercially available ELISA kits are used to quantitate the viral proteins HBsAg (Alpco) or HbeAg (US Biological) by following the manufacturer's recommended protocol after diluting samples to match the linear range of their respective assays. Irrespective of readout, compound concentrations that reduce viral product accumulation in the cell lysates or supernatants by 50% relative to no drug controls (EC50) are reported; EC50 ranges are as follows: A<0.1 μM; B 0.1-1 μM; C>1 μM.

[1] = Compound toxicity, ATPLite total ATP levels; type: cell-based; conditions: human
Protocol: (§1) Compound toxicity is evaluated by seeding cells at 15,000 cells/well and treating with compound as described above.

HepG2 = assay: Compound toxicity, ATPLite total ATP levels; type: cell-based; conditions: human, 3 days
Protocol: as §1

[2] = Hepatitis B virus, HePAD38, read-out: HepAD38 EC50 (μM)
[3] = Hepatitis B virus, HepAD38 cells, 50% reduction of viral product accumulation relative to no drug controls, class symbols, read-out: HepAD38 EC50
[4] = read-out: HepAD38 EC50, HepAD38 cells, 50% reduction of viral product accumulation relative to no drug controls, class symbols
[5] = HepG2 cells, HepG2, three days after compound addition, 50% reduction of total ATP levels (ATPLite), read-out: HepG2 CC50
[6] = Hepatitis B virus, HepAD38 cells, 50% reduction of viral product accumulation relative to no drug controls, numeric bound, read-out: HepAD38 EC50

SMILES | EC50 (HBV; [2]) [µM] | EC50 (HBV; [3]) [µM] | other results
O=S(=O)(N[C@H]1CC2=C(c3ccn(C(F)F)n3)[C@H](c3ccc(F)cc3Cl)N=C(c3nccs3)N2C1)N1C2CC[C@H]1C[C@](O)(c1cn(-c3ccccn3)nn1)C2 [Example 31] | < 0.1 | – | –
O=S(=O)(N[C@H]1CC2=C(c3ccn(C(F)F)n3)[C@H](c3ccc(F)cc3Cl)N=C(c3nccs3)N2C1)N1C2CCC1CC(O)(c1cn(-c3ccccn3)nn1)C2 (stereo partly shown) [Example 24] | < 0.1 | – | CC50 at 3 days ([1]; HepG2 CC50 (μM)): > 25 µM
O=S(=O)(N[C@H]1CC2=C(c3ccn(C(F)F)n3)[C@H](c3ccc(F)cc3Cl)N=C(c3nccs3)N2C1)[C@@H]1CC2CC[C@@H](C1)[C@@]2(O)c1cn(-c2ccccn2)nn1 [Example 28] | – | < 0.1 | –
O=S(=O)(N[C@H]1CC2=C(c3ccn(C(F)F)n3)[C@H](c3ccc(F)cc3Cl)N=C(c3nccs3)N2C1)[C@H]1C2CC[C@H]1C[C@@](O)(c1ccccn1)C2 [Example 34] | – | < 0.1 | –
O=S(=O)(N[C@H]1CC2=C(c3ccn(C(F)F)n3)[C@H](c3ccc(F)cc3Cl)N=C(c3nccs3)N2C1)N1C2CCC1CC(O)C2 (single isomer, unassigned) [Example 1] | < 0.1 | – | CC50 (HepG2): 10000 to 25000 nM
O=S(=O)(N[C@H]1CC2=C(c3ccn(C(F)F)n3)[C@H](c3ccc(F)cc3Cl)N=C(c3nccs3)N2C1)N1C2CCC1CC(O)(c1ccccn1)C2 (stereo partly shown) [Example 19] | < 0.1 | – | –
O=S(=O)(N[C@H]1CC2=C(c3ccn(C(F)F)n3)[C@H](c3ccc(F)cc3Cl)N=C(c3nccs3)N2C1)N1C2CCC1CC(O)(c1nccs1)C2 (stereo partly shown) [Example 23] | – | – | CC50 at 3 days ([1]; HepG2 CC50 (μM)): > 25 µM; EC50 (HBV; [4]): < 0.1 µM
O=S(=O)(N[C@H]1CC2=C(c3ccn(C(F)F)n3)[C@H](c3ccc(F)cc3Cl)N=C(c3nccs3)N2C1)N1C2CCC1CC(O)(c1nccs1)C2 (stereo partly shown) [Example 20] | < 0.1 | – | –
C#C[C@]1(O)C2CCC1C[C@@H](S(=O)(=O)N[C@H]1CC3=C(c4ccn(C(F)F)n4)[C@H](c4ccc(F)cc4Cl)N=C(c4nccs4)N3C1)C2 [Example 26] | – | < 0.1 | –
C[C@]1(O)C2CCC1C[C@@H](S(=O)(=O)N[C@H]1CC3=C(c4ccn(C(F)F)n4)[C@H](c4ccc(F)cc4Cl)N=C(c4nccs4)N3C1)C2 [Example 25] | – | < 0.1 | –
O=S(=O)(NC1CC2CCC(C1)C2O)N[C@H]1CC2=C(c3ccn(C(F)F)n3)[C@H](c3ccc(F)cc3Cl)N=C(c3nccs3)N2C1 (stereo partly shown) [Example 12] | – | 0.1 to 1 | –
O=S(=O)(N[C@H]1CC2=C(c3ccn(C(F)F)n3)[C@H](c3ccc(F)cc3Cl)N=C(c3nccs3)N2C1)N1C2CCC1CC(F)(F)C2 [Example 10] | < 0.1 | – | –
CN([C@H]1CC2=C(c3ccn(C(F)F)n3)[C@H](c3ccc(F)cc3Cl)N=C(c3nccs3)N2C1)S(=O)(=O)N1C2CC[C@H]1C[C@@](O)(c1nccs1)C2 [Example 36] | < 0.1 | – | CC50 at 3 days ([1]; HepG2 CC50 (μM)): > 25 µM
O=S(=O)(N[C@H]1CC2=C(c3ccn(C(F)F)n3)[C@H](c3ccc(F)cc3Cl)N=C(c3nccs3)N2C1)[C@H]1CC2CCC(C1)[C@]2(O)CO [Example 27] | – | < 0.1 | CC50 at 3 days [1, 5]: > 25 µM
C#CC1(O)CC2CCC(C1)N2S(=O)(=O)N[C@H]1CC2=C(c3ccn(C(F)F)n3)[C@H](c3ccc(F)cc3Cl)N=C(c3nccs3)N2C1 (stereo partly shown) [Example 22] | < 0.1 | – | –
CC(C)(C)OC(=O)N1C2CCC1CC(NS(=O)(=O)N[C@H]1CC3=C(c4ccn(C(F)F)n4)[C@H](c4ccc(F)cc4Cl)N=C(c4nccs4)N3C1)C2 (stereo partly shown) [Example 11] | 0.1 to 1 | – | –
O=S(=O)(C[C@H]1CC2=C(c3ccn(C(F)F)n3)[C@H](c3ccc(F)cc3Cl)N=C(c3nccs3)N2C1)N1C2CC[C@H]1C[C@@](O)(c1ccccn1)C2 [Example 38] | 0.1 to 1 | – | –
O=C1CC2CC[C@@H](C1)[C@H]2S(=O)(=O)N[C@H]1CC2=C(c3ccn(C(F)F)n3)[C@H](c3ccc(F)cc3Cl)N=C(c3nccs3)N2C1 [Example 33] | – | < 0.1 | CC50 at 3 days [1, 5]: > 25 µM

SMILES | EC50 (HBV; [2]) [µM] | EC50 (HBV; [3]) [µM] | other results
O=C(N[C@H]1CC2=C(c3ccn(C(F)F)n3)[C@H](c3ccc(F)cc3Cl)N=C(c3nccs3)N2C1)N1C[C@H]2CC[C@@H](C1)[C@@H]2O [Example 6] | – | 0.1 to 1 | –
O=S(=O)(C[C@H]1CC2=C(c3ccn(C(F)F)n3)[C@H](c3ccc(F)cc3Cl)N=C(c3nccs3)N2C1)N1CC2CC[C@@H](C1)[C@]2(O)c1ccccn1 [Example 37] | – | < 0.1 | –
O=S(=O)(N[C@H]1CC2=C(c3ccn(C(F)F)n3)[C@H](c3ccc(F)cc3Cl)N=C(c3nccs3)N2C1)N1C2CCC1CC(O)C2 (single isomer, unassigned) [Example 3] | – | – | CC50 (HepG2): > 25000 nM; EC50 (HBV; [4]): < 0.1 µM
O=S(=O)(N[C@H]1CC2=C(c3ccn(C(F)F)n3)[C@H](c3ccc(F)cc3Cl)N=C(c3nccs3)N2C1)N1C2CC[C@H]1C=C(c1cn(-c3ccccn3)nn1)C2 [Example 32] | < 0.1 | – | CC50 at 3 days ([1]; HepG2 CC50 (μM)): > 25 µM
O=S(=O)(N[C@H]1CC2=C(c3ccn(C(F)F)n3)[C@H](c3ccc(F)cc3Cl)N=C(c3nccs3)N2C1)[C@H]1CC2CCC(C1)[C@H]2O [Example 17] | – | < 0.1 | CC50 at 3 days [1, 5]: 10 to 25 µM
O=C1C2CCC1CC(S(=O)(=O)N[C@H]1CC3=C(c4ccn(C(F)F)n4)[C@H](c4ccc(F)cc4Cl)N=C(c4nccs4)N3C1)C2 (stereo partly shown) [Example 16] | – | 0.1 to 1 | –
O=S(=O)(N[C@H]1CC2=C(c3ccn(C(F)F)n3)[C@H](c3ccc(F)cc3Cl)N=C(c3nccs3)N2C1)N1CC2CCC(C1)C2(O)c1ccccn1 (stereo partly shown) [Example 14] | – | < 0.1 | –
O=C(N[C@H]1CC2=C(c3ccn(C(F)F)n3)[C@H](c3ccc(F)cc3Cl)N=C(c3nccs3)N2C1)N1C[C@H]2CC[C@@H](C1)[C@H]2O [Example 7] | – | 0.1 to 1 | –
O=C(N[C@H]1CC2=C(c3ccn(C(F)F)n3)[C@H](c3ccc(F)cc3Cl)N=C(c3nccs3)N2C1)N1[C@@H]2CC[C@H]1C[C@H](O)C2 [Example 8] | 0.1 to 1 | – | –
O=S(=O)(N[C@H]1CC2=C(c3ccn(C(F)F)n3)[C@H](c3ccc(F)cc3Cl)N=C(c3nccs3)N2C1)[C@H]1CC2CCC(C1)[C@]2(O)c1ccccn1 [Example 18] | – | < 0.1 | CC50 at 3 days [1, 5]: 10 to 25 µM
O=S(=O)(N[C@H]1CC2=C(c3ccn(C(F)F)n3)[C@H](c3ccc(F)cc3Cl)N=C(c3nccs3)N2C1)N1C2CCC1CC(O)(Cn1ccnc1)C2 (stereo partly shown) [Example 30] | < 0.1 | – | –
O=C(N[C@H]1CC2=C(c3ccn(C(F)F)n3)[C@H](c3ccc(F)cc3Cl)N=C(c3nccs3)N2C1)N1[C@@H]2CC[C@H]1C[C@@H](O)C2 [Example 5] | – | – | EC50 (HBV; [6]): > 0.4 µM
O=S(=O)(N[C@H]1CC2=C(c3ccn(C(F)F)n3)[C@H](c3ccc(F)cc3Cl)N=C(c3nccs3)N2C1)[C@H]1C2CC[C@H]1C[C@@](O)(CO)C2 [Example 35] | – | < 0.1 | CC50 at 3 days [1, 5]: > 25 µM
O=S(=O)(N[C@H]1CC2=C(c3ccn(C(F)F)n3)[C@H](c3ccc(F)cc3Cl)N=C(c3nccs3)N2C1)N1CC2CCC(C1)O2 [Example 2] | – | < 0.1 | –
O=S(=O)(N[C@H]1CC2=C(c3ccn(C(F)F)n3)[C@H](c3ccc(F)cc3Cl)N=C(c3nccs3)N2C1)N1CC2CCC(C1)C2O (stereo partly shown) [Example 15] | – | < 0.1 | –
O=C1NCC2(CC3CCC(C2)N3S(=O)(=O)N[C@H]2CC3=C(c4ccn(C(F)F)n4)[C@H](c4ccc(F)cc4Cl)N=C(c4nccs4)N3C2)O1 (stereo partly shown) [Example 21] | < 0.1 | – | CC50 at 3 days ([1]; HepG2 CC50 (μM)): > 25 µM
O=C(N[C@H]1CC2=C(c3ccn(C(F)F)n3)[C@H](c3ccc(F)cc3Cl)N=C(c3nccs3)N2C1)N1CC2CCC(C1)O2 [Example 4] | – | – | EC50 (HBV; [6]): > 0.4 µM
O=C1CC2CCC(C1)N2S(=O)(=O)N[C@H]1CC2=C(c3ccn(C(F)F)n3)[C@H](c3ccc(F)cc3Cl)N=C(c3nccs3)N2C1 [Example 9] | < 0.1 | – | CC50 at 3 days ([1]; HepG2 CC50 (μM)): > 25 µM
